Activity calls are given as the source filed them. The rule behind the calls is not given here.
Experiment: inhibitors of TNFa-induced E-selectin expression, confirmation, imaging, retest plus dose response, cell count (AID 1288);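 note: 0% = stimulated vehicle wells and 100% = unstimulated vehicle wells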
Details: human endothelial cells, TNFa-induced E-selectin, imaging; at 2 µM; stronger effect = higher value
With CCCn1c(SCC(=O)N2c3ccccc3Sc3ccccc32)nc2c1c(=O)n(C)c(=O)n2C the inhibition was -8.34% (inactive). With Fc1ccc(CNc2nc(-c3ccccc3)nc3ccccc23)cc1 the inhibition was 26.5% (inactive). In the case of Cc1ccn2cc(CCNS(=O)(=O)c3ccc(F)c(C(F)(F)F)c3)nc2c1, the inhibition is reported as 0.82% (inactive). For COCCNC(=O)c1ccccc1NC(=O)c1cccc([N+](=O)[O-])c1C, the inhibition was 0.34% (inactive). For COc1ccc(CCN(C)c2ccc(S(=O)(=O)N3CCCC3)cn2)cc1OC, the inhibition was 28.4% (inactive). For CS(=O)(=O)N(CC(=O)NCCC1=CCCCC1)C1CCCCC1, the inhibition was -0.77% (inactive). With CCCc1[nH]nc2c1C(c1ccc(O)c(OC)c1)C(C#N)=C(N)O2 (centres undefined) the inhibition was 16.6% (inactive). In the case of CCOc1cc2[nH]c(=O)n(CCCN3CCCC3=O)c(=O)c2cc1OCC, the inhibition is reported as 17% (inactive). With O=C(NN=C1CCN(Cc2ccccc2)CC1)c1ccccc1 the inhibition was 9.36% (inactive). With CCOc1ccc(NCc2nc3ccccc3n2CCOc2ccccc2)cc1 the inhibition was 11.6% (inactive). With Cc1cc(C(=O)CN2C(=O)CCC2=O)c(C)n1Cc1ccccc1 the inhibition was 13.3% (inactive). With O=C(N/N=C1/CCS(=O)(=O)c2ccc(F)cc21)c1ccccn1 the inhibition was 8.24% (inactive). In the case of Cc1[nH]nc2c1C1(C(=O)N(Cc3ccc(Cl)cc3)c3ccccc31)C(C#N)=C(N)O2 (centres undefined), the inhibition is reported as 10.5% (inactive). With Cc1ccc(C)c(N(CC(=O)NCCSCc2ccco2)S(C)(=O)=O)c1 the inhibition was 6.59% (inactive). In the case of COc1ccc(-n2c(SCC(=O)NCc3ccco3)nc3c([nH]c4ccccc43)c2=O)cc1, the inhibition is reported as 1.34% (inactive). For N/C(=N\S(=O)(=O)c1cccs1)c1ccccc1, the inhibition was 13.7% (inactive). In the case of Cc1cccc(C)c1NC(=O)CN(C)C(=O)/C=C/c1cccs1, the inhibition is reported as 1.62% (inactive). For CN=C(C)C1=C(O)C(C(=O)OC)C(C)(C)CC1=O (centres undefined), the inhibition was -0.09% (inactive). In the case of COCCNC(=O)c1ccc(N(C)S(=O)(=O)c2ccc(OC)c(OC)c2)cc1, the inhibition is reported as 0.94% (inactive). For Cc1ccc(-n2ncc3c(=O)n(CC(=O)N4CCCCCC4)cnc32)cc1, the inhibition was -0.4% (inactive). In the case of COc1ccccc1CC1(C)NC(=O)N(CC(=O)N2CC(C)OC(C)C2)C1=O (centres undefined), the inhibition is reported as 9.89% (inactive). With Brc1ccc(C2=CC(c3cccs3)n3ncnc3N2)cc1 (centres undefined) the inhibition was 13.5% (inactive). For CCN(CC)CCNS(=O)(=O)c1ccc(/C=C/C(=O)O)cc1, the inhibition was 13.4% (inactive). With Cn1c(=O)[nH]c(=O)c2c1nc(N1CCCCC1)n2CCCSc1nnnn1-c1ccccc1 the inhibition was 10.1% (inactive). For O=C(CSc1ccccn1)N/N=C/c1ccccc1[N+](=O)[O-], the inhibition was 5.02% (inactive). With CCOC(=O)c1c(C)[nH]c(C(=O)OCCOc2ccccc2C)c1C the inhibition was 0.85% (inactive). With COc1ccc(CCNC(=O)COc2ncnc3cc([N+](=O)[O-])ccc23)cc1 the inhibition was 15.8% (inactive). For O=C(c1cnccn1)N1CCN(c2ccccc2)CC1, the inhibition was 30.4% (inactive). In the case of O=C(c1ccccc1)N1CCN(c2ccccc2F)CC1, the inhibition is reported as 9.93% (inactive). With CCC1Sc2ccccc2N(CC(=O)NCc2ccc3c(c2)OCO3)C1=O (centres undefined) the inhibition was 9.94% (inactive). With Nn1c(CN2CCCCC2)nc2ccccc2c1=O the inhibition was 12.2% (inactive). With CC(=O)N[C@@H](Cc1c[nH]c2ccccc12)C(=O)OCC(=O)Nc1ccc(Cl)c(S(=O)(=O)N(C)C)c1 the inhibition was 7.98% (inactive). For CCOC(=O)C(C)Oc1cccc2c(=O)n(CC(=O)Nc3cccc(OC)c3)ccc12 (centres undefined), the inhibition was 22.4% (inactive). With O=C(Oc1nsnc1N1CCOCC1)N1CCOCC1 the inhibition was 2.57% (inactive). In the case of COc1ccc(/C=N/NC(=O)C(C)n2cnc3ccccc3c2=O)cc1OC (centres undefined), the inhibition is reported as -0.71% (inactive). With CCN(CC)Cc1cc(C(C)=O)ccc1O the inhibition was 3.73% (inactive). For CC(C)[C@H](NC(=O)CCn1nnc2ccccc2c1=O)C(=O)O, the inhibition was 4.34% (inactive). In the case of COc1ccccc1N(Cc1ccccc1)S(=O)(=O)c1cccc(C(=O)Nc2ccc(C(C)=O)cc2)c1, the inhibition is reported as 14.8% (inactive). In the case of Cc1nc(=O)c(-c2ccccc2)c(C)n1-c1ccc(S(N)(=O)=O)cc1, the inhibition is reported as 42.4% (inactive). With CCn1c(SCC(=O)NCc2ccco2)nnc1-c1ccc(N)cc1 the inhibition was 10.3% (inactive). For O=C(NCCN1C(=O)CSC1=O)c1ccccc1, the inhibition was 1.16% (inactive). For C=CCN1C(c2cccc(C(F)(F)F)c2)=CS/C1=C(/C#N)c1nnc(N2CCOCC2)n1-c1ccccc1, the inhibition was 31.5% (inactive). For Cc1ccc2oc(=O)n(CCCOc3ccccc3)c2c1, the inhibition was 26.2% (inactive). In the case of CCOC(=O)N1CCc2c(sc3c2c(=O)n(Cc2ccccc2)c(=O)n3Cc2cccc(C)c2)C1, the inhibition is reported as 5.64% (inactive). In the case of COc1ccc(C(=O)CN2C(=O)NC3(CCCc4ccccc43)C2=O)cc1OC (centres undefined), the inhibition is reported as 7.22% (inactive). For COCCN(C(=O)CCC(=O)Nc1ccccn1)C(C(=O)NC1CCCC1)c1ccc(OC)cc1 (centres undefined), the inhibition was 2.57% (inactive). With N#CC1=C(N)Oc2cc(Nc3ccccc3)ccc2C1c1ccncc1 (centres undefined) the inhibition was 4.14% (inactive). In the case of C=CCNC(=S)NNC(=O)c1ccc(Br)cc1, the inhibition is reported as 38.3% (inactive). With CCCCCOC(=O)Cn1c(SCC(=O)Nc2ccccc2)nc2c1c(=O)[nH]c(=O)n2C the inhibition was -1.58% (inactive). In the case of COc1ccc(Cl)cc1NC(=S)NCc1ccco1, the inhibition is reported as 2.52% (inactive). In the case of CCN(CC)S(=O)(=O)c1ccc(-c2nnc(SCC(=O)Nc3ccc(OC)cc3)o2)cc1, the inhibition is reported as 23.9% (inactive). In the case of Cc1ccc2cc(C#N)c(N3CCCC3)nc2c1C, the inhibition is reported as 8.05% (inactive). With COC(=O)C(NC(=O)c1ccccc1)c1ccccc1 (centres undefined) the inhibition was 5.65% (inactive). For CN1CCN(S(=O)(=O)c2ccc(NC(=O)C3CCCO3)cc2)CC1 (centres undefined), the inhibition was 13.2% (inactive). With CC(c1ccco1)N(C(=O)C12CC3CC(CC(C3)C1)C2)c1ccccn1 (centres undefined) the inhibition was 5.6% (inactive). For O=Cc1ccc(OCc2ccccn2)cc1, the inhibition was 15.8% (inactive). For Cc1nc2ccccc2c(=O)n1/N=C/c1ccc(O)cc1, the inhibition was 4.58% (inactive). With O=C1NCCCc2c1oc1cc(Br)c(O)c(Br)c21 the inhibition was 15.8% (inactive). For COc1cc(CN2CCN(c3ccc(C)cc3)CC2)cc([N+](=O)[O-])c1O, the inhibition was 24.7% (inactive). In the case of Cc1ccc(NC(=O)N2CCC(C(=O)NCCC3=CCCCC3)CC2)cc1, the inhibition is reported as 11.6% (inactive). For O=C(O)CCC(=O)Nc1ccc(Br)c(Cl)c1, the inhibition was -3.06% (inactive). In the case of O=C(C1CCN(c2nc3ccc(Br)cc3s2)CC1)N1CCC2(CC1)OCCO2, the inhibition is reported as 5.07% (inactive). With CCOc1cc(C(=O)NCCCn2ccnc2)cc(OCC)c1OCC the inhibition was -4.2% (inactive). In the case of COc1ccc(N=C2SCC(=O)N2c2ccc(OC)cc2)cc1, the inhibition is reported as -8.28% (inactive). With O=C(c1ccc(Cl)cc1)N1CCCC(c2ccccc2)=N1 the inhibition was 10% (inactive). With O=C1c2ccccc2C(Nc2ccc(S(=O)(=O)N3CCCCCC3)cc2)N1Cc1ccco1 (centres undefined) the inhibition was 1.55% (inactive). For O=c1cc(O)n(-c2ccc(F)cc2)c(=S)[nH]1, the inhibition was -0.2% (inactive). With O=C(Nc1nnc(SCc2ccccc2)s1)c1cccc([N+](=O)[O-])c1 the inhibition was 6.01% (inactive). For CCOC(=O)CSc1nc2cc(OC)ccc2cc1C#N, the inhibition was 11.6% (inactive). With COc1ccc(C2(CNC(=O)c3cc([N+](=O)[O-])cc([N+](=O)[O-])c3)CCCC2)cc1OC the inhibition was 4.01% (inactive). In the case of c1ccc(-n2c(-c3ccncc3)nnc2N2CCOCC2)cc1, the inhibition is reported as 5.7% (inactive). In the case of Cc1oc(-c2cccs2)nc1CSCC(=O)N1CCC2(CC1)OCCO2, the inhibition is reported as 2.86% (inactive). For C=CCc1cccc(/C=N/NC(=O)CCCNc2ccc(C)cc2)c1O, the inhibition was 11.2% (inactive). With CCOc1ccc(NC(=O)C2CCC(N3C(=O)C4CC=CCC4C3=O)CC2)cc1 (centres undefined) the inhibition was 2.62% (inactive). With O=c1c2c(n3nnnc3n1-c1ccccc1)-c1ccccc1CC21CCCC1 the inhibition was -3.55% (inactive). With O=C(Nc1ccccc1N1CCOCC1)c1ccc(Cl)nc1 the inhibition was 3.97% (inactive). For CCS(=O)(=O)NCC(c1ccco1)N1CCN(c2ccccc2)CC1 (centres undefined), the inhibition was 0.44% (inactive). With CCOC(=O)Cc1csc(NC(=O)COc2ccc(OC)cc2)n1 the inhibition was 6.28% (inactive). With COc1ccc(Br)cc1CN(C)CC(=O)Nc1c(Cl)cccc1Cl the inhibition was 0.05% (inactive). With CC(=O)Nc1ccc(OCCF)cc1 the inhibition was 0.31% (inactive). For CN(CC(=O)Nc1ccc(Cl)cc1)c1ccc(S(=O)(=O)N2CCCCC2)cc1[N+](=O)[O-], the inhibition was 7.17% (inactive). With COc1ccc(OC)c(CCNC(=O)CSc2ccsc2[N+](=O)[O-])c1 the inhibition was 4.97% (inactive). With O=S1(=O)CCC(NC(=S)N2CCCCCC2)C1 (centres undefined) the inhibition was 18.2% (inactive). With COc1ccccc1N1CCN(C(=O)c2ccc(Br)s2)CC1 the inhibition was 0.09% (inactive). With CC1=NN(C(C)C)C(=O)C1 the inhibition was 25.1% (inactive). With COc1ccc(Nc2nc(C)cc(C)c2C#N)cc1OC the inhibition was 6.96% (inactive). With C/C=C/Cn1c(N2CCCCCC2)nc2c1c(=O)[nH]c(=O)n2C the inhibition was 17.1% (inactive). For Fc1cccc(F)c1CSc1nc2ccccc2[nH]1, the inhibition was 3.56% (inactive). In the case of O=C(c1cccs1)N1CCN=C1SCc1ccccc1, the inhibition is reported as 9.69% (inactive). In the case of COC(=O)c1cc(Br)c(=O)n(Cc2ccncc2)c1, the inhibition is reported as 6.86% (inactive). In the case of COc1ccc(OC)c(S(=O)(=O)N(C)CC(=O)Nc2ccc3c(c2)OCO3)c1, the inhibition is reported as 5.06% (inactive). In the case of COc1ccc(S(=O)(=O)Cc2ccc(C(=O)N3CCOCC3)o2)cc1, the inhibition is reported as 26.4% (inactive). For CC(C)C(=O)N(c1ccc(F)cc1)C1C=CS(=O)(=O)C1 (centres undefined), the inhibition was -2.25% (inactive). For N#CCc1c(C#N)c(N)nc(N2CCN(c3ccc(F)cc3)CC2)c1C#N, the inhibition was 4.37% (inactive). For O=C(Nc1ccccc1)N(CCc1ccncc1)C1CCCCC1, the inhibition was 5.75% (inactive). With CC(=O)c1ccc(NC(=S)N2CC(C)CC(C)C2)cc1 (centres undefined) the inhibition was -4.33% (inactive). For Cc1cc2nc(-c3ccc(SCc4ccc(C#N)cc4)nc3)[nH]c2cc1C, the inhibition was 1.98% (inactive). In the case of O=C(COC(=O)CCc1ccc(S(=O)(=O)N2CCOCC2)cc1)NC1CCCC1, the inhibition is reported as 2.85% (inactive). In the case of CSc1ccc(/C=N/NC(=O)CN2CCN(Cc3ccc(C)cc3)CC2)cc1, the inhibition is reported as -1.62% (inactive).

Reference: PubChem BioAssay AID1288 (Columbia University Molecular Screening Center, 2008)
